By Cmax is commonly meant the maximum level reached in the sampled fluid or tissue. As a reminder, the Tmax is the time at which the peak concentration occurs.

The structures appear in SMILES notation.

The text below walks through data of publication PMC10192880 (Frontiers in Pharmacology, 2023).

A short description of one data set: clinical. The procedure:
This was an open-label, three-period, controlled before-and-after trial (China Clinical Trial Registry: ChiCTR1900024344). It was conducted at the Second Affiliated Hospital within Tianjin University of Traditional Chinese Medicine (Tianjin, China). The protocol was approved by the ethics committees of the Second Affiliated Hospital within Tianjin University of Traditional Chinese Medicine. Written informed consent was provided by all participants. This trial was in accordance with the Declaration of Helsinki 1964 and its later amendments.
Men and women aged 18–45 years participated in this trial if they were healthy and the EPHX1 A/A genotype was confirmed. The key exclusion criteria were coagulation disorders or allergies to drugs.
Our trial comprised three periods. […] After 3 days, individuals entered the second period, in which CDDP (10 pills, p. o., t.d.s.) was administered for 5 days.
Moreover, blood samples were taken from participants once a day before CDDP administration for assays of coagulation indices to ensure safety.

Data set [1] has as its system transfected EPHX1 A/G and BL cells. The data set can be described thus: MTT cell viability of transfected cells. The conditions noted are these: 0.0625–8.00 mg/mL for 24 h or 72 h, dose-dependent. The class given is cell-based, human. The procedure:
CDDP was manufactured by Tianjin Tasly Group (Tianjin, China). […] Transfected cells were plated evenly on a 96-well cell-culture plate with ∼8,000 cells/well. They were cultured for 24 h at 37°C. […] Subsequently, to each well was added 10 µL of 3-(4,5-Dimethylthiazol-2-yl)-2,5-diphenyltetrazolium bromide solution (5 mg/mL), and cells were allowed to incubate for an additional 4 h in an atmosphere of 5% CO2 at 37°C. Then, the cells were centrifugated and the […]. Finally, the blue-purple crystals were dissolved using dimethyl sulfoxide (150 µL) with agitation for 10 min. The absorbance of each well was determined at 490 nm. Cell viability (Supplementary Figure S1) was calculated according to the formula: Cell viability=absorbanceexperiment/absorbancecontrol×100%
Thus, the incubation time selected at 24 h.

Where [2] appears, read: by dose adjustment (residual drug converted into a dose), third period: warfarin + CDDP.
Setting [3] is: by dose adjustment, first period: warfarin 3 mg p.o. alone.
Where [4] appears, read: first period: warfarin 3 mg p.o. alone, HVs EPHX1 A/A.
The mark [5] stands for this setting: third period: warfarin 3 mg p.o. + CDDP 10 pills p.o., HVs EPHX1 A/A.

As to `CC(=O)C[C@H](c1ccccc1)c1c(O)c2ccccc2oc1=O` [R-Warfarin], in the data set “clinical” (setting [2]), the AUC0-144 is reported as 14594 ± 3088 ng/h/mL, the Cmax was 273.9 ± 58.10 ng/mL, the Tmax turned out to be 0.7143 ± 0.3934 h and the Vd is 18445 ± 2408 mL. In “clinical” (setting [3]), the AUC0-144 amounted to 11630 ± 2938 ng/h/mL, the CL was 210.3 ± 57.13 mL/h, the Cmax is reported as 204.6 ± 71.38 ng/mL and the Tmax worked out at 1.857 ± 1.435 h. The Vd in “clinical” (setting [3]) is 20505 ± 4506 mL. In addition, in “clinical” (setting [4]), the AUC0-144 amounted to 11630 ± 2938 ng/h/mL, the CL is 210.3 ± 57.13 mL/h, the Cmax is 204.6 ± 71.38 ng/mL and the Tmax turned out to be 1.857 ± 1.435 h. This molecule also returned a Vd in “clinical” (setting [4]) of 20505 ± 4506 mL. Further, in “clinical” (setting [5]), the AUC0-144 amounted to 14594 ± 3088 ng/h/mL, the CL is recorded as 164.8 ± 51.16 mL/h, the Cmax was determined as 273.9 ± 58.10 ng/mL and the Tmax was 0.7143 ± 0.3934 h. The Vd in the data set “clinical” (setting [5]) was found to be 16283 ± 2164 mL.
With `CC(=O)C[C@@H](c1ccccc1)c1c(O)c2ccccc2oc1=O` [S-Warfarin], in “clinical” (setting [2]), the AUC0-144 amounted to 7223 ± 1727 ng/h/mL, the CL is reported as 423.5 ± 91.18 mL/h, the Cmax stood at 261.9 ± 54.50 ng/mL and the Tmax is recorded as 0.714 ± 0.393 h. Further, the Vd in the data set “clinical” (setting [2]) stood at 32429 ± 3754 mL. In addition, in “clinical” (setting [3]), the AUC0-144 is listed as 5812 ± 1632 ng/h/mL, the CL is on record as 466.0 ± 109.7 mL/h, the Cmax is 199.0 ± 76.90 ng/mL and the Tmax amounted to 1.500 ± 1.414 h. This molecule also registered a Vd in the data set “clinical” (setting [3]) of 37594 ± 9569 mL. Also, in the data set “clinical” (setting [4]), the AUC0-144 is 5812 ± 1632 ng/h/mL, the CL worked out at 466.0 ± 109.7 mL/h, the Cmax was determined as 199.0 ± 76.90 ng/mL and the Tmax is 1.500 ± 1.414 h. Besides, the Vd in “clinical” (setting [4]) stood at 37594 ± 9569 mL. In “clinical” (setting [5]), the AUC0-144 is given as 7223 ± 1727 ng/h/mL, the CL stood at 374.1 ± 82.69 mL/h, the Cmax stood at 261.9 ± 54.50 ng/mL and the Tmax was determined as 0.714 ± 0.393 h. Further, the Vd in the data set “clinical” (setting [5]) is reported as 28630 ± 3437 mL.
As for `CC(=O)CC(c1ccccc1)c1c(O)c2ccccc2oc1=O` (centres unmarked) [Warfarin], the “cells' viability” value in data set [1] is reported as “significantly decreased”. Further, in the data set “clinical” (both, human, in vivo, po, 3 mg), the CL is 144.9 ± 36.87 mL/h, the Cmax is 403 ± 148 ng/mL, the Tmax was 1.86 ± 1.44 h and the Vd was 13393 ± 3036 mL.
